In US8771724B2, “Percutaneous absorption enhancer and transdermal preparation using the same” (TOA EIYO Ltd., priority 2008, dated 2014):
Counter-ions that a name gives are not always drawn. Like-named read-outs stand apart in the source and are kept apart here.

Experimental: A permeation test was carried out based on the following procedure. First, an excised skin (Yucatan miniature swine or hairless mouse) was placed in a vertical diffusion cell in which temperature was kept at 37° C., and a receptor phase was filled with 7 mL of a phosphate-buffered saline (PBS, a pH of 7.5). The whole was left to stand still for one hour. […] Then, the test was started. […] Note that after each of the collections, an equivalent amount of PBS was supplemented into the receptor phase. Each PBS collected from the receptor phase was measured for a drug concentration by an HPLC method. […] Further, the slant of a permeation curve at the time when the permeation rate reached a steady state was used to calculate a skin permeation rate (μg/hr/cm^2).
An enhancing effect on drug permeation was evaluated for the case where a 1% isopropyl myristate solution was used as a control and for the case where 1% each of n-octyl-β-D-thioglucopyranoside and dioctyl sodium sulfosuccinate was added.

SMILES	Percutaneous absorption enhancing action (Example/Comparative Example), cumulative permeation amount for 24 hours (hairless, mouse, 24 h, pH 7.5) [times]	Percutaneous absorption enhancing action (Example/Comparative Example), skin permeation rate (hairless, mouse, pH 7.5)	Percutaneous absorption enhancing action (Example/Comparative Example), cumulative permeation amount for 24 hours [times]	Percutaneous absorption enhancing action (Example/Comparative Example), skin permeation rate [times]
CCOc1nc2cccc(C(=O)O)c2n1Cc1ccc(-c2ccccc2-c2nnn[nH]2)cc1 [Candesartan, candesartan]	15	183 times	–	–
CCOC(=O)[C@H](CCc1ccccc1)N[C@@H](C)C(=O)N(CC(=O)O)C1Cc2ccccc2C1 [Delapril hydrochloride, delapril hydrochloride]	42	26 times	–	–
CCCc1nc(C(C)(C)O)c(C(=O)OCc2oc(=O)oc2C)n1Cc1ccc(-c2ccccc2-c2nnn[nH]2)cc1 [Olmesartan medoxomil, olmesartan medoxomil]	75	94 times	–	–
CCC[C@H](N[C@@H](C)C(=O)N1[C@H](C(=O)O)C[C@@H]2CCCC[C@@H]21)C(=O)OCC [Perindopril erbumine, perindopril erbumine]	3	12 times	–	–
NS(=O)(=O)c1cc(C(=O)O)cc(N2CCCC2)c1Oc1ccccc1 [Piretanide, piretanide]	34	51 times	–	–
CCOc1cc(CC(=O)N[C@@H](CC(C)C)c2ccccc2N2CCCCC2)ccc1C(=O)O [Repaglinide, repaglinide]	27	33 times	–	–
CC(C)c1nc(N(C)S(C)(=O)=O)nc(-c2ccc(F)cc2)c1/C=C/[C@@H](O)C[C@@H](O)CC(=O)[O-].CC(C)c1nc(N(C)S(C)(=O)=O)nc(-c2ccc(F)cc2)c1/C=C/[C@@H](O)C[C@@H](O)CC(=O)[O-].[Ca+2] [Rosuvastatin calcium, rosuvastatin calcium]	–	–	46	138
C[C@]1(Cn2ccnn2)[C@H](C(=O)O)N2C(=O)C[C@H]2S1(=O)=O [Tazobactam, tazobactam]	6	21 times	–	–
COc1ccccc1N1CCN(CCCNc2cc(=O)n(C)c(=O)n2C)CC1 [Urapidil, urapidil]	20	18 times	–	–
CCCCC(=O)N(Cc1ccc(-c2ccccc2-c2nnn[nH]2)cc1)[C@H](C(=O)O)C(C)C [Valsartan, valsartan]	4	12 times	–	–
CC(=O)N[C@H]1[C@H]([C@H](O)[C@H](O)CO)OC(C(=O)O)=C[C@@H]1N=C(N)N [Zanamivir hydrate, zanamivir hydrate]	47	92 times	–	–

The next lines start with the values.

Percutaneous absorption enhancing action (Example/Comparative Example), cumulative permeation amount for 24 hours (hairless, mouse, 24 h, pH 7.5) [times]	Percutaneous absorption enhancing action (Example/Comparative Example), skin permeation rate (hairless, mouse, pH 7.5)	Percutaneous absorption enhancing action (Example/Comparative Example), cumulative permeation amount for 24 hours [times]	Percutaneous absorption enhancing action (Example/Comparative Example), skin permeation rate [times]	SMILES
7	24 times	–	–	COc1cc(N)cn[n+]1-c1ccccc1 [Amezinium metilsulfate, amezinium metilsulfate]
234	254 times	–	–	CC1(C)S[C@@H]2[C@H](NC(=O)[C@H](N)c3ccc(O)cc3)C(=O)N2[C@H]1C(=O)O [Amoxicillin trihydrate, amoxicillin trihydrate]
420	962 times	–	–	N[C@@H](C(=O)N[C@@H]1C(=O)N2C(C(=O)O)=C(Cl)CS[C@H]12)c1ccccc1 [Cefaclor, cefaclor]
13	16 times	–	–	CCOC(=O)[C@H](CCc1ccccc1)N[C@H]1CCCN2CCC[C@@H](C(=O)O)N2C1=O [Cilazapril, cilazapril]
4	44 times	–	–	CCOC(=O)[C@H](CCc1ccccc1)N[C@@H](C)C(=O)N1CCC[C@H]1C(=O)O [Enalapril maleate, enalapril maleate]
28	54 times	–	–	CC(C)n1c(/C=C/C(O)CC(O)CC(=O)O)c(-c2ccc(F)cc2)c2ccccc21 (centres unmarked) [Fluvastatin sodium, fluvastatin sodium]
344	1,411 times	–	–	NNc1nncc2ccccc12 [Hydralazine hydrochloride, hydralazine hydrochloride]
12	40 times	–	–	CCOC(=O)[C@H](CCc1ccccc1)N[C@@H](C)C(=O)N1C(=O)N(C)C[C@H]1C(=O)O [Imidapril hydrochloride, imidapril hydrochloride]
461	289 times	–	–	N[C@@H](Cc1ccc(O)c(O)c1)C(=O)O [Levodopa, levodopa]
250	180 times	–	–	CN(Cc1cnc2nc(N)nc(N)c2n1)c1ccc(C(=O)N[C@@H](CCC(=O)O)C(=O)O)cc1 [Methotrexate, methotrexate]
4	8 times	–	–	CNC[C@H](O)c1cccc(O)c1 [Phenylephrine hydrochloride, phenylephrine hydrochloride]
5	8 times	–	–	CCOC(=O)[C@H](CCc1ccccc1)N[C@@H](C)C(=O)N1[C@H](C(=O)O)C[C@@H]2CCC[C@@H]21 [Ramipril, ramipril]
27	46 times	–	–	CCOC(=O)[C@H](CCc1ccccc1)N[C@H]1CS[C@H](c2cccs2)CN(CC(=O)O)C1=O [Temocapril hydrochloride, temocapril hydrochloride]
29	40 times	–	–	Cc1cccc(Nc2ccncc2S(=O)(=O)NC(=O)NC(C)C)c1 [Torasemide, torasemide]
